Data as given in patent US4155909A, “2-Alkyl nicotinoids and processes for their production” (priority 1977, dated 1979).
Values joined by “and” are separate entries in the source; they are usually repeats but may differ in a detail not shown here. Identical values can stand only once.

Tests used:
mammals = details: Haglid et al., compared with nicotine; cited from earlier work
[1] = Mammalian toxicity, LD50 in mice; assay type: in vivo, mouse; details: in vivo; mouse; measure of mammalian toxicity
From the text: (§1) In the first column, the LD50 of the compounds in mice is a measure of their mammalian toxicity. The second column illustrates the effectiveness of the candidate compounds as insecticides as compared to nicotine, whereas the third column is the ratio of insecticidal effectiveness to mammalian toxicity.

Aphids = test: Aphid spray test on replicate ivy cuttings infested with Aphids; assay type: in vivo; details: for Avg. % Dead / % Dead / Insecticidal Effectiveness: aphids; for Avg. % Dead: average of 3 replicates; for Avg. % Dead / % Dead / No. of Aphids Alive / No. of Aphids Dead: 5 ml sprayed, 18 hours; for % Dead / No. of Aphids Alive / No. of Aphids Dead: per replicate (1, 2, 3); for No. of Aphids Alive / No. of Aphids Dead: 100 mg in 10 ml ethanol + 40 ml water with surfactant; for Insecticidal Effectiveness: as compared to nicotine (100%)
Experimental: A 100 mg sample of the candidate compound was dissolved in 10 ml absolute ethanol. To the solution was added 40 ml tap water containing 0.5 ml of 1% surfactant. A 5 ml sample of each solution was sprayed on to replicate ivy cuttings infested with Aphids. The results, tabulated below in Table I were recorded 18 hours following the application of the sprays. […]
as §1

female house flies = test: Topical application to the notum of female house flies; assay type: in vivo; details: for Avg. % Dead / Percent Dead, Run 1 / Percent Dead, Run 2: house flies, 50 mg in 0.4 ml ethanol, 0.3 μl applied, 24 hours; for Avg. % Dead: average of Run 1 and Run 2; for insecticidal effectiveness in words: common houseflies, compared with nicotine
Experimental: A 50 mg sample of the candidate compound was dissolved on 0.4 ml absolute ethanol. A 0.3 μl sample of the solution was applied to the notum of female house flies which has been anesthetized with ether. Results were read twenty-four hours later.

mouse = test: Mammalian toxicity, LD50 in mice; assay type: in vivo; details: compared with nicotine
From the text: as §1

SMILES: Cc1ccc(C2CCCN2C)cn1 (centres unmarked) [6-methylnicotine]
- nicotinic / pharmacological activity in words (mammals): identical in pharmacological activity to nicotine itself

SMILES: CN1CCC[C@H]1c1cccnc1 [l-nicotine, reference compound]
- LD50 [1]: 0.26 mg/kg
- Avg. % Dead (Aphids): 100%
- % Dead (Aphids): 100%
- No. of Aphids Alive (Aphids): 0
- No. of Aphids Dead (Aphids): 45 and 27 and 39
- Avg. % Dead (female house flies): 100%
- Percent Dead, Run 1 (female house flies): 100%
- Percent Dead, Run 2 (female house flies): 100%

SMILES: Cc1ccncc1C1CCCN1C (centres unmarked) [4-methylnicotine]
- nicotinic / pharmacological activity in words (mammals): little or no nicotinic activity

SMILES: Cc1ncccc1C1CCCCN1 (centres unmarked) [2-methylanabasine, 2-Methyl-3-(2-piperidinyl)pyridine]
- LD50 [1]: 15.7 mg/kg
- Avg. % Dead (Aphids): 52%
- % Dead (Aphids; 1080 min): 62% and 50% and 43%
- Insecticidal Effectiveness (Aphids): 52%
- No. of Aphids Alive (Aphids): 24 and 27 and 87
- No. of Aphids Dead (Aphids): 39 and 27 and 66

SMILES: Cc1ccc(C2CCCN2C)c(C)n1 (centres unmarked) [2,6-dimethylnicotine, 2,6-Dimethyl-3-(1-methyl-2-pyrrolidinyl)pyridine]
- LD50 [1]: 41 mg/kg
- Avg. % Dead (Aphids): 6%
- % Dead (Aphids; 1080 min): 0% and 13% and 4%
- Insecticidal Effectiveness (Aphids): 6%
- No. of Aphids Alive (Aphids): 32 and 20 and 87
- No. of Aphids Dead (Aphids): 0 and 3 and 66

SMILES: Cc1ncccc1C1CCCN1C (centres unmarked) [2-methylnicotine, 2-Methyl-3-(1-methyl-2-pyrrolidinyl)pyridine]
- mammalian toxicity in words (mouse): lower mammalian toxicity than nicotine
- Avg. % Dead (Aphids): 6%
- % Dead (Aphids; 1080 min): 4% and 5% and 8%
- No. of Aphids Alive (Aphids): 54 and 38 and 55
- No. of Aphids Dead (Aphids): 2 and 5
- insecticidal effectiveness in words (female house flies): as effective an insecticide as nicotine itself
- Avg. % Dead (female house flies): 100%
- Percent Dead, Run 1 (female house flies): 100%
- Percent Dead, Run 2 (female house flies): 100%

SMILES: Cc1ncccc1C1CCCN1 (centres unmarked) [2-methylnornicotine, 2-Methyl-3-(2-pyrrolidinyl)pyridine]
- LD50 [1]: 100 mg/kg
- Avg. % Dead (Aphids): 3%
- % Dead (Aphids; 1080 min): 2% and 7% and 0%
- Insecticidal Effectiveness (Aphids): 3%
- No. of Aphids Alive (Aphids): 39 and 27 and 30
- No. of Aphids Dead (Aphids): 2 and 0
- insecticidal effectiveness in words (female house flies): only slightly less effective
- Avg. % Dead (female house flies): 70%
- Percent Dead, Run 1 (female house flies): 80%
- Percent Dead, Run 2 (female house flies): 60%
